Laboratory results published in PubChem BioAssay (NCI).
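Cultured in 96-well plates, cells were exposed to test compound for 48 hours across five concentrations. GI50 = concentration required for 50% inhibition of growth. TGI: total growth inhibition.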

Experiments:
Experiment in all cases: DTP human tumour cell line panel, 48 h
SK-MEL-2 melanoma = test system: SK-MEL-2 melanoma
OVCAR-8 ovarian = test system: OVCAR-8 ovarian
MALME-3M melanoma = test system: MALME-3M melanoma
UO-31 renal = test system: UO-31 renal
MCF7 breast = test system: MCF7 breast
NCI/ADR-RES ovarian = test system: NCI/ADR-RES ovarian
SK-MEL-5 melanoma = test system: SK-MEL-5 melanoma
SNB-19 CNS = test system: SNB-19 CNS
SK-OV-3 ovarian = test system: SK-OV-3 ovarian
K-562 leukemia = test system: K-562 leukemia
HS 578T breast = test system: HS 578T breast
OVCAR-3 ovarian = test system: OVCAR-3 ovarian
786-0 renal = test system: 786-0 renal
COLO 205 colon = test system: COLO 205 colon
LOX IMVI melanoma = test system: LOX IMVI melanoma
ACHN renal = test system: ACHN renal
T-47D breast = test system: T-47D breast
UACC-62 melanoma = test system: UACC-62 melanoma
RXF 393 renal = test system: RXF 393 renal
NCI-H460 lung = test system: NCI-H460 lung
MOLT-4 leukemia = test system: MOLT-4 leukemia
RPMI-8226 leukemia = test system: RPMI-8226 leukemia
PC-3 prostate = test system: PC-3 prostate
A549 NSCLC = test system: A549 NSCLC
MDA-MB-435 = test system: MDA-MB-435
SK-MEL-28 melanoma = test system: SK-MEL-28 melanoma
NCI-H226 lung = test system: NCI-H226 lung
KM12 colon = test system: KM12 colon
SN12C renal = test system: SN12C renal
SF-295 CNS = test system: SF-295 CNS
M14 melanoma = test system: M14 melanoma
NCI-H522 lung = test system: NCI-H522 lung
OVCAR-4 ovarian = test system: OVCAR-4 ovarian
BT-549 breast = test system: BT-549 breast
U251 CNS = test system: U251 CNS
CCRF-CEM leukemia = test system: CCRF-CEM leukemia
SF-268 CNS = test system: SF-268 CNS
HT29 colon = test system: HT29 colon
MDA-MB-231 breast = test system: MDA-MB-231 breast
CAKI-1 renal = test system: CAKI-1 renal
HOP-62 NSCLC = test system: HOP-62 NSCLC
SR leukemia = test system: SR leukemia
HCT-116 colon = test system: HCT-116 colon
HCT-15 colon = test system: HCT-15 colon
DU-145 prostate = test system: DU-145 prostate
NCI-H23 lung = test system: NCI-H23 lung
OVCAR-5 ovarian = test system: OVCAR-5 ovarian
EKVX NSCLC = test system: EKVX NSCLC
SW-620 colon = test system: SW-620 colon

## O=C1C(Cl)=C(Nc2cccc(O)c2)C(=O)N1c1ccccc1Cl
SK-MEL-2 melanoma
  GI50: 25.5 µM
  TGI: 61.6 µM
OVCAR-8 ovarian
  GI50: 32.1 µM
  TGI: > 100 µM
MALME-3M melanoma
  GI50: 10.9 µM
  TGI: 69.1 µM
UO-31 renal
  GI50: 32.5 µM
  TGI: > 100 µM
MCF7 breast
  GI50: 29.8 µM
  TGI: > 100 µM
NCI/ADR-RES ovarian
  GI50: 56.3 µM
  TGI: > 100 µM
SK-MEL-5 melanoma
  GI50: 18.8 µM
  TGI: 65.6 µM
SNB-19 CNS
  GI50: 40.6 µM
  TGI: > 100 µM
SK-OV-3 ovarian
  GI50: 49.9 µM
  TGI: > 100 µM
K-562 leukemia
  GI50: 25 µM
  TGI: 63.2 µM
HS 578T breast
  GI50: 21 µM
  TGI: 77.7 µM
OVCAR-3 ovarian
  GI50: 21.5 µM
  TGI: 48.5 µM
786-0 renal
  GI50: 39 µM
  TGI: > 100 µM
COLO 205 colon
  GI50: 30.3 µM
  TGI: > 100 µM
LOX IMVI melanoma
  GI50: 20.1 µM
  TGI: 52.6 µM
ACHN renal
  GI50: > 100 µM
  TGI: > 100 µM
T-47D breast
  GI50: 32.3 µM
  TGI: > 100 µM
UACC-62 melanoma
  GI50: 19.6 µM
  TGI: 62.3 µM
RXF 393 renal
  GI50: 7.87 µM
  TGI: 41.2 µM
NCI-H460 lung
  GI50: 41.2 µM
  TGI: > 100 µM
MOLT-4 leukemia
  GI50: 15.8 µM
  TGI: 38.1 µM
RPMI-8226 leukemia
  GI50: 10.4 µM
  TGI: 35.1 µM
PC-3 prostate
  GI50: 10.7 µM
  TGI: 31.2 µM
A549 NSCLC
  GI50: 50 µM
  TGI: > 100 µM
MDA-MB-435
  GI50: 37.2 µM
  TGI: > 100 µM
SK-MEL-28 melanoma
  GI50: 58 µM
  TGI: > 100 µM
NCI-H226 lung
  GI50: 17 µM
  TGI: 49.6 µM
KM12 colon
  GI50: 59.5 µM
  TGI: > 100 µM
SN12C renal
  GI50: 17.3 µM
  TGI: 46.4 µM
SF-295 CNS
  GI50: 40 µM
  TGI: > 100 µM
M14 melanoma
  GI50: 21.5 µM
  TGI: > 100 µM
NCI-H522 lung
  GI50: 17.3 µM
  TGI: 41.8 µM
OVCAR-4 ovarian
  GI50: 40.4 µM
  TGI: > 100 µM
BT-549 breast
  GI50: 21.8 µM
  TGI: 75.4 µM
U251 CNS
  GI50: 33.3 µM
  TGI: > 100 µM
CCRF-CEM leukemia
  GI50: 1480 nM
  TGI: 19.6 µM
SF-268 CNS
  GI50: 13.6 µM
  TGI: 60.6 µM
HT29 colon
  GI50: 24.6 µM
  TGI: 89.2 µM
MDA-MB-231 breast
  GI50: 5.68 µM
  TGI: 42.4 µM
CAKI-1 renal
  GI50: 40.3 µM
  TGI: > 100 µM
HOP-62 NSCLC
  GI50: 32.9 µM
  TGI: > 100 µM
SR leukemia
  GI50: 7 µM
  TGI: 40.2 µM
HCT-116 colon
  GI50: 20 µM
  TGI: 70.9 µM
HCT-15 colon
  GI50: 35.2 µM
  TGI: > 100 µM
DU-145 prostate
  GI50: 30.9 µM
  TGI: > 100 µM
NCI-H23 lung
  GI50: 32.2 µM
  TGI: > 100 µM
OVCAR-5 ovarian
  GI50: 55.2 µM
  TGI: > 100 µM
EKVX NSCLC
  GI50: 76.1 µM
  TGI: > 100 µM
SW-620 colon
  GI50: 52.3 µM
  TGI: > 100 µM
